Test results as given in article PMC8201173, “Inhibition of Carbonic Anhydrase IX Promotes Apoptosis through Intracellular pH Level Alterations in Cervical Cancer Cells” (International Journal of Molecular Sciences, 2021).

How the values were obtained:
HT-29 = assay: WST-1 cytotoxicity assay, HT-29; assay type: cell-based; conditions: Homo sapiens
Protocol: We used cancer and normal cell lines purchased from ATCC (American Type Culture Collection) and ECACC (European Collection of Authenticated Cell Cultures) and stored in liquid nitrogen.
The cells were planted in 96 well plates (10^4 cells per well). […] WST-1 reactive of 10 µL was added in all wells. Following 4 h incubation, the measurements were carried out in a plate reader (Spectramax M5, BioTek, VT, USA) at wavelengths of 450 and 630 nm.

HeLa cells [1] = assay: Intracellular pH (BCFL-AM fluorometric assay); assay type: cell-based; conditions: BCFL-AM indicator, 0–200 μM
Protocol: Intracellular PH was measured according to the protocol of fluorometric Intracellular pH Assay Kit (Sigma-Aldrich, MAK-150, Germany). Fluorescent BCFL-AM indicator passed through cell membrane to measure intracellular pH fluctuations in the fluorometric intracellular pH kit. BCFL-AM was utilized to measure intracellular pH of the cells. The cells were planted in black plates and incubated for 24 h. The medium was replaced with BCFL-AM Reagent, which had been prepared in 100 µL of HBS solution (Hank’s buffer with 20 mM HEPES, 5 mM Probenecid); then, the cells were incubated at 37 °C with an atmosphere of 5% CO2 for 30 min (protected from light). The compound E at doses of 0–200 μM was administrated in HBS solution. The measurement was performed at wavelengths 490 nm (excitation) 535 nm (emission) in fluorimetry (Spectramax M5, BioTek, VT, USA.

HeLa cells [2] = assay: Intracellular ROS detection (ROS Deep Red); assay type: cell-based; conditions: ROS red dye, 0–200 μM, 1 h
Protocol: Intracellular free radicals were measured using the Cellular Reactive Oxygen Species Detection Assay commercial kit (Abcam-186027, Cambridge, UK). In this kit, a fluorescence probe that is permeable to cells was used. When the probe reacts with ROS, it produces red fluorescence. According to the kit protocol, the cells were planted in black plates and incubated for 24 h. The compound E in PBS was administered at doses of 0–200 μM and incubated at 37 °C within an atmosphere of 5 % CO2 for 1 h (protected from light). After the compound E was poured out, the wells were filled with 100 µL of ROS Deep Red Working Solution, and then they were incubated at 37°C under an atmosphere of 5 % CO2 for 1 h. A fluorometry device (Spectramax M5, BioTek, VT, USA) Ex/Em: 650/675 nm (cut off: 665 nm) was used for the measuring.

HeLa cells [3] = assay: Western blot of apoptotic proteins and CAIX; assay type: cell-based; conditions: 24 h
Protocol: The cells were seeded on 6 cm^2 cell culture dishes and treated with the compound E at doses of 10–25–50 μM, for 24 h. The cells were then washed by cold PBS, which was followed by lysis with RIPA lysis tampon (10 mM Tris-HC1 pH:8.1 mM EDTA, 1 mM EGTA, 140 mM NaCl, 1% TritonX-100, 0.1 SDS, 0.1% Sodium deoxycholate), 1X phosphates, and protease inhibitor (Santa Cruz, Heidelberg, Germany). Acquired supernatant was centrifuged at 12,000× g for 10 min and transferred to new tubes. Protein concentration was detected using the protein assay kit BCA (Thermo Fisher Scientific, MA, USA). Following protein (50 µg) standing in 10% SDS-PAGE gel at 50 V for 30 min and 80 V for 3 h, the proteins were blotted to PVDF membrane at 70 V for 5 min (Bio-Rad Turbo Transfer System). After blocking in 1X TBST (12.1 gr Tris, pH 7.5, 70 gr NaCl, %0.1 Tween-20) containing 5% dry milk or 5% BSA, the primer monoclonal antibodies shown in Table 3 were administrated to the membrane overnight, which was followed by washing with 1 X TBS-T and incubation period with secondary antibodies HRP rabbit or mouse (1/10.000) for 60 min. The membrane was washed with 1 X TBS-T again. For band imaging, ECL substrate (EMD Millipore Corp., MA, USA) was used in the imaging system (LI-COR Odyssey Fc, NE, USA).

HeLa cells [4] = assay: Acridine orange/ethidium bromide (AO/EB) staining; assay type: cell-based; conditions: HeLa, 10, 25 and 50 µM, 24 h
Protocol: After 24 h incubation of HeLa cells in 12 well-plates at 5 × 10^4 cell/mL, the compound E at concentrations of 10–50 μM was added on plates, and the cells were incubated at 37 °C for 24 h. The cells were then washed with PBS and incubated in a solution including 100 μL acridine orange (100 µg/mL) and ethidium bromide (100 µg/mL) at room temperature for 5 min. The morphological changes were investigated under fluorescent microscopy (Olympus CKX 51, DP73, USA).

HeLa cells [5] = assay: Cell cycle analysis (PI staining, flow cytometry); assay type: cell-based; conditions: for Cells in G2/M phase / Cells in S phase / Cells in G0/G1 phase: 72 h; for Cells in G2/M phase: WT 20.4%; for Cells in S phase: WT 23.2%; for Cells in G0/G1 phase: WT 56.6%
Protocol: Cell cycle analysis was performed using BD Cycletest ™ Plus DNA Reagent kit (BD Biosciences, NJ, USA). […] The cells were raised with trypsin and centrifuged at 1500 rpm for 5 min. When a suspension was created by 1X binding buffer, 250 µL solution A was added and incubated in a light-free environment for 10 min, 200 µL solution B was added and incubated in light-free environment for 10 min, and 200 µL solution C was added and incubated at +4 °C in a protected-light environment for 10 min. All these analyses were performed by flow cytometry (BD Via, NJ, USA).

## NS(=O)(=O)c1ccc(CCNCc2cc(Br)ccc2O)cc1 [Compound E, 4-(2-((5-bromo-2-hydroxybenzyl)amino)ethyl) benzenesulphonamide]
HT-29; HT-29, 24 h
  IC50: 89.3 ± 12.2 µM
HT-29; HT-29, 48 h
  IC50: 42.9 ± 16.3 µM
HT-29; HT-29, 72 h
  IC50: 83.3 ± 17.4 µM
HeLa cells [1]
  Intracellular pHi level: decreased intracellular pHi level after the dose of 25 µM in a dose-dependent manner
HeLa cells [2]
  Intracellular ROS level: amount of ROS increased in a manner dose-dependent
HeLa cells [3]; 25 µM
  CAIX protein level: effective for inhibiton of CAIX protein
HeLa cells [3]; 10 and 25 µM, vs WT
  Cleaved PARP protein level: increased PARP protein level
HeLa cells [3]; 10–25–50 μM, vs WT
  Cleaved caspase 3, 8, and 9 protein levels: increased
  Pro-caspase 3 protein level: decreased
HeLa cells [4]
  Apoptotic morphology (AO/EB staining): observed both markers of apoptosis in HeLa cells
HeLa cells [5]
  Cell cycle arrest: arrested cell cycle of HeLa cells at the G0/G1 phase
HeLa cells [5]; 10 µM
  Cells in G2/M phase: 22.3%
  Cells in S phase: 19.3%
  Cells in G0/G1 phase: 56.8%
HeLa cells [5]; 25 µM
  Cells in G2/M phase: 17.9%
  Cells in S phase: 14.6%
  Cells in G0/G1 phase: 66.5%
HeLa cells [5]; 50 µM
  Cells in G2/M phase: 19.3%
  Cells in S phase: 10.8%
  Cells in G0/G1 phase: 68.8%
other
  melting point: 189 to 191 °C
